This passage reports viability results from paper PMC12040169 (PLOS Biology, 2025).

Molecules are shown by their SMILES.

The series is described as follows: in vitro. The conditions noted are these: human, hela cells, % viability.
With `Cc1ccc(CNC(=O)CSc2nnc(-c3ccncc3)n2-c2ccccc2)cc1` [CBK266654], the viability at 28.5 h, 10 µM was found to be 102%.

Regarding `O=C(CSc1nnc(CN2CCOCC2)n1-c1ccccc1)N1CCN(c2ccccc2)CC1` [CBK266660], the viability at 28.5 h, 10 µM came to 102%.

As for `COc1ccc(OC(C)C(=O)Nc2ccccc2-c2ccccc2)cc1` (stereo not drawn) [CBK266661], the viability at 28.5 h, 10 µM is 94.2%.

In the case of `Cc1cc(C)c(S(=O)(=O)N(CC(=O)O)C2CCCCC2)c(C)c1` [CBK266663], the viability at 28.5 h, 10 µM amounted to 92.6%.

Turning to `CCCNc1nc(Nc2ccc(C)cc2)nc(N2CCOCC2)n1` [CBK266664], the viability at 28.5 h, 10 µM amounted to 111%.

On to `O=C(NCCN1CCOCC1)c1cccc(S(=O)(=O)N2CCCCCC2)c1` [CBK266668], for which the viability at 28.5 h, 10 µM turned out to be 97.3%.

Regarding `COc1ccc(OC(C)C(=O)O/N=C(\N)c2ccccn2)cc1` (stereo not drawn) [CBK266669], the viability at 28.5 h, 10 µM came out at 100%.

Consider `O=C1CC(SCCc2nc3ccccc3[nH]2)C(=O)N1c1cccc(F)c1` (stereo not drawn) [CBK266671], for which the viability at 28.5 h, 10 µM came to 94.6%.

`Cc1cc(OCc2nc(-c3ccc(NC(=O)c4ccc5c(c4)OCO5)cc3)no2)ccc1Cl` [CBK266673]: the viability at 28.5 h, 10 µM was found to be 95.7%.

Regarding `Nc1nonc1-n1nnc(C(=O)O)c1-c1cccs1` [CBK266674], the viability at 28.5 h, 10 µM is 99.4%.

For `COc1ccccc1Nc1nc(N)nc(CSCCO)n1` [CBK266679], the viability at 28.5 h, 10 µM amounted to 91.4%.

As to `Cc1ccc(S(N)(=O)=O)cc1-c1nnc2c3ccccc3c(C)nn12` [CBK266680], the viability at 28.5 h, 10 µM worked out at 104%.

With `COc1ccc(Nc2nc(N)nc(CSc3nnc(N)s3)n2)cc1` [CBK266682], the viability at 28.5 h, 10 µM came out at 90.6%.

With `Cc1cccc(C)c1NC(=O)Cn1c(SCC(N)=O)nc2ccccc21` [CBK266684], the viability at 28.5 h, 10 µM turned out to be 106%.

For the compound `Cc1ccc(-c2ccc(/C=C(\C#N)c3nc(-c4ccco4)cs3)o2)c([N+](=O)[O-])c1` [CBK266685], the viability at 28.5 h, 10 µM was 96%.

As for `O=C(O)CSc1nnc(-c2ccncc2)n1-c1ccc(Cl)cc1` [CBK266686], the viability at 28.5 h, 10 µM stood at 92.1%.

For the compound `COc1ccc(C(=O)Nn2c(SCC(=O)c3ccc(F)cc3)nc3ccccc3c2=O)cc1` [CBK266688], the viability at 28.5 h, 10 µM turned out to be 99.7%.

`Nc1nc(COn2c(-c3ccccc3)nc3ccccc3c2=O)nc(-c2ccccc2O)n1` [CBK266689]: the viability at 28.5 h, 10 µM stood at 98.6%.

As for `O=C(Nc1ccc(-c2noc(COc3ccc(Br)cc3)n2)cc1)c1ccc2c(c1)OCO2` [CBK266692], the viability at 28.5 h, 10 µM is 97.2%.

Regarding `CC1(C)CC(=O)C2=C(C1)NC(SCC(=O)Nc1ccc(S(=O)(=O)N3CCCCC3)cc1)=C(C#N)C2c1ccco1` (stereo not drawn) [CBK266695], the viability at 28.5 h, 10 µM is 94.3%.

As to `O=C(CSc1nnc(Cc2cccc3ccccc23)n1-c1ccccc1)N1CCc2ccccc21` [CBK266697], the viability at 28.5 h, 10 µM amounted to 99.1%.

Consider `CCN1CCN(c2ccc(NC(=O)c3ccc(-c4cc5ccccc5oc4=O)cc3)cc2Cl)CC1` [CBK266700], for which the viability at 28.5 h, 10 µM worked out at 84.6%.

Turning to `O=C1CC(SCc2nc3ccccc3[nH]2)C(=O)N1c1ccccc1Cl` (stereo not drawn) [CBK266702], the viability at 28.5 h, 10 µM is 94.7%.

`COc1cc([N+](=O)[O-])ccc1NC(=O)CS(=O)(=O)Cc1ccccc1` [CBK266704]: the viability at 28.5 h, 10 µM is 105%.

Regarding `Cc1ccc(S(=O)(=O)NCCOc2nc(N(C)C)nc(N3CCOCC3)n2)cc1` [CBK266705], the viability at 28.5 h, 10 µM was 97%.

In the case of `N#Cc1c(N)n(CCN)c2nc3ccccc3nc12` [CBK266706], the viability at 28.5 h, 10 µM is 87.4%.

Take `CC(=O)Nc1ccc(OC(=O)CSc2nc(C)cc(C)n2)cc1` [CBK266707]: the viability at 28.5 h, 10 µM was 86.6%.

Take `COc1ccccc1Nc1nc(N)nc(CSc2nccn2C)n1` [CBK266710]: the viability at 28.5 h, 10 µM was determined as 95%.

Consider `O=C(CC1C(=O)N(c2ccccc2)C(=S)N1NC(=O)c1ccccn1)Nc1ccc(Cl)cc1` (stereo not drawn) [CBK266711], for which the viability at 28.5 h, 10 µM was found to be 92.2%.

Consider `Nc1nnc(Sc2ccc([N+](=O)[O-])c3nonc23)s1` [CBK266712], for which the viability at 28.5 h, 10 µM amounted to 82.3%.

With `CC1(C)CC2(CC(C)(C(=O)CSc3nnc(-c4ccccc4Br)[nH]3)OC2=O)C(=O)O1` (stereo not drawn) [CBK266713], the viability at 28.5 h, 10 µM worked out at 102%.

On to `COc1ccc(Nc2nc(N)nc(CSCCO)n2)cc1` [CBK266714], for which the viability at 28.5 h, 10 µM stood at 88.3%.

Take `O=C(C[S+]([O-])c1ccc(C(F)(F)F)cc1[N+](=O)[O-])Oc1cccc2cccnc12` (stereo not drawn) [CBK266716]: the viability at 28.5 h, 10 µM worked out at 91.6%.

As to `Cc1ccc(S(=O)(=O)N(C)CC(=O)O/N=C(\N)c2cccnc2)cc1` [CBK266717], the viability at 28.5 h, 10 µM was found to be 110%.

For the compound `O=C(O)C(Cc1ccccc1)Nc1ncnc2c1oc1ccccc12` (stereo not drawn) [CBK266719], the viability at 28.5 h, 10 µM worked out at 104%.

As to `COc1cccc(/C=C(/C#N)c2ccc(Cl)cc2)c1OCc1cccc(C(=O)O)c1` [CBK266721], the viability at 28.5 h, 10 µM was 97.2%.

With `NS(=O)(=O)c1ccc(S(=O)(=O)N2CCN(C/C=C/c3ccccc3)CC2)cc1` [CBK266723C], the viability at 28.5 h, 10 µM was 95.8%.

Turning to `OCCNc1nc(Nc2ccc(Br)cc2)nc2ccccc12` [CBK266724C], the viability at 28.5 h, 10 µM stood at 87.7%.

Take `Cc1cc(C)nc(SCc2nc(N)nc(-c3ccccc3O)n2)n1` [CBK266725]: the viability at 28.5 h, 10 µM is 94.4%.

Take `Cc1cc(C)n(C(=O)c2cccc(S(=O)(=O)N3CCCCCC3)c2)n1` [CBK266727]: the viability at 28.5 h, 10 µM was 102%.

In the case of `COc1ccc(Nc2nc(N)nc(CSc3nncn3C)n2)cc1` [CBK266730], the viability at 28.5 h, 10 µM stood at 88.9%.

For `O=C1CC(SCc2nc3ccccc3[nH]2)C(=O)N1c1cccc(Cl)c1` (stereo not drawn) [CBK266731], the viability at 28.5 h, 10 µM came out at 94.5%.

Take `O=C(CSc1nnc(CN2CCOCC2)n1-c1ccccc1)N1CCc2ccccc21` [CBK266733]: the viability at 28.5 h, 10 µM came to 92.7%.

For `CCN1CCN(C(=O)CN(Cc2ccccc2)S(C)(=O)=O)CC1` [CBK266735], the viability at 28.5 h, 10 µM came out at 94.6%.

Turning to `Brc1ccc2nc(NCc3ccccn3)nc(-c3ccccc3)c2c1` [CBK266736], the viability at 28.5 h, 10 µM worked out at 89.3%.

`O=C(CCn1cnc2ccccc2c1=O)Nc1ccc(Cl)c(Cl)c1` [CBK266738]: the viability at 28.5 h, 10 µM was 89.6%.

Take `Cc1nnc(SCc2cc(=O)[nH]c(Nc3nc(C)c4cccc(C)c4n3)n2)s1` [CBK266740]: the viability at 28.5 h, 10 µM worked out at 92.9%.

In the case of `COC(=O)c1ccccc1NC(=O)Cn1cncc1-c1ccc([N+](=O)[O-])cc1` [CBK266741], the viability at 28.5 h, 10 µM came out at 91.9%.

In the case of `N#C/C(=C(/O)c1ccc(-c2ccc([N+](=O)[O-])cc2Cl)o1)c1nc(-c2ccc(F)cc2)cs1` [CBK266742], the viability at 28.5 h, 10 µM was 91%.

As for `O=C(O)c1cccc(-n2nnnc2SCc2ccccn2)c1` [CBK266744], the viability at 28.5 h, 10 µM turned out to be 115%.

Consider `COc1ccccc1Nc1nc(N)nc(CSc2nc3ccccc3s2)n1` [CBK266747], for which the viability at 28.5 h, 10 µM was determined as 95.7%.

Turning to `COc1ccc(NC(=O)CS(=O)(=O)Cc2ccccc2)c([N+](=O)[O-])c1` [CBK266748], the viability at 28.5 h, 10 µM worked out at 93.1%.

With `Nc1cc(N)nc(SCC(=O)Nc2ccc(Oc3ccccc3)cc2)n1` [CBK266749], the viability at 28.5 h, 10 µM is 95%.

With `COc1ccc(OC(C)C(=O)Nc2cc3oc4ccccc4c3cc2OC)cc1` (stereo not drawn) [CBK266751], the viability at 28.5 h, 10 µM worked out at 100%.

As for `COc1nc(OCCNS(=O)(=O)c2ccc(C)cc2)nc(N(C)C)n1` [CBK266752], the viability at 28.5 h, 10 µM is 117%.

`Cc1cc(C)c2nc(C(F)(F)F)nc(NCCCN3CCOCC3)c2c1` [CBK266753]: the viability at 28.5 h, 10 µM was 86.4%.

For `N#C/C(=C/c1ccc(-c2cc(C(=O)O)cc(C(=O)O)c2)o1)c1nc2ccccc2s1` [CBK266754], the viability at 28.5 h, 10 µM was found to be 103%.

Consider `CC(=O)Nc1ccc(NC(=O)CN(C2CCCCC2)S(C)(=O)=O)cc1` [CBK266755], for which the viability at 28.5 h, 10 µM was found to be 93.3%.

`CCn1c2ccccc2c2cc(NC(=O)CN(C)S(=O)(=O)c3ccc(C)cc3)ccc21` [CBK266756]: the viability at 28.5 h, 10 µM was 92.8%.

With `Cc1c(NC(=O)CSc2nnc(-c3cccc([N+](=O)[O-])c3)n2C)c(=O)n(-c2ccccc2)n1C` [CBK266757], the viability at 28.5 h, 10 µM came to 95.4%.

For `Cc1ccc(-c2nnc(N3CCN(S(=O)(=O)c4ccc(Cl)cc4)CC3)c3ccccc23)cc1` [CBK266759], the viability at 28.5 h, 10 µM was 96.1%.

For `O=C(O)c1cc(NC(=O)c2ccc3c(c2)C(=O)N(Cc2cccnc2)C3=O)cc(C(=O)O)c1` [CBK266761], the viability at 28.5 h, 10 µM was 108%.

As for `N#Cc1c(NC(=O)c2cccc(S(=O)(=O)Nc3ccc(C(=O)O)cc3)c2)sc2c1CCCC2` [CBK266762], the viability at 28.5 h, 10 µM was determined as 106%.

For `N#C/C(=C\c1ccc(OCC(=O)c2ccccc2)cc1)c1nc(-c2cccs2)cs1` [CBK266765], the viability at 28.5 h, 10 µM was determined as 95.3%.

For the compound `CN(C)S(=O)(=O)c1cc(C(=O)Nc2ccc(O)cc2)c(Cl)cc1Cl` [CBK266767], the viability at 28.5 h, 10 µM was found to be 95.4%.

With `N#C/C(=C\c1ccc(OCC(=O)c2ccc(F)cc2)cc1)c1nc(-c2cc3ccccc3oc2=O)cs1` [CBK266769], the viability at 28.5 h, 10 µM amounted to 90.6%.

As for `O=C(Nc1cc([N+](=O)[O-])ccc1O)c1ccc2c(c1)C(=O)N(Cc1cccnc1)C2=O` [CBK266770], the viability at 28.5 h, 10 µM amounted to 92.7%.

`CC1CCN(S(=O)(=O)c2cccc(C(=O)NNC(=O)c3cccc([N+](=O)[O-])c3)c2)CC1` [CBK266774]: the viability at 28.5 h, 10 µM is 98%.

As to `O=C(Nc1ccc(Br)cc1C(=O)O)c1ccc2c(c1)C(=O)N(Cc1cccnc1)C2=O` [CBK266776], the viability at 28.5 h, 10 µM was 96.7%.

On to `O=C(CSCc1ccc(Cl)cc1Cl)Nc1ccc(Oc2ccc3c(c2)C(=O)NC3=O)cc1` [CBK266779], for which the viability at 28.5 h, 10 µM worked out at 92.2%.

On to `O=C(OCc1ccc(S(=O)(=O)c2ccccc2)cc1)c1cc(O)nc2ccccc12` [CBK266782], for which the viability at 28.5 h, 10 µM was determined as 93.1%.

Consider `Cc1cc(Cl)c(S(=O)(=O)Nc2ccon2)cc1OCC(=O)NC1CCCCC1` [CBK266785], for which the viability at 28.5 h, 10 µM is 93.5%.

As for `O=C(CSc1ccccc1)Nc1cccc(NC(=O)c2cccs2)c1` [CBK266788], the viability at 28.5 h, 10 µM worked out at 96.7%.

As to `Cc1ccc(-c2nnc(-c3cccc(NC(=O)CSCc4ccc(Cl)cc4)c3)o2)cc1` [CBK266789], the viability at 28.5 h, 10 µM was 92.3%.

On to `Cc1ccc(NC(=O)COc2ccccc2)c(NC(=O)c2ccccc2I)c1` [CBK266793], for which the viability at 28.5 h, 10 µM amounted to 98.2%.

For orientation: viability means a read-out of living cells in per cent, often relative to untreated cells.
